Source: ChEMBL document CHEMBL1201862, “PubChem BioAssay data set” (2004)
Active and inactive are the calls of the source.

Columns and labels:
[1] = molecular target: Voltage-dependent T-type calcium channel subunit alpha-1H (Homo sapiens, UniProt O95180); assay type: functional;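 note: channel activity triggered by adding a high calcium stimulation buffer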
[2] = molecular target: Peroxisome proliferator-activated receptor gamma/Nuclear receptor coactivator 2 (Homo sapiens, UniProt P37231); assay type: functional;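 note: agonist potency for raising coactivator recruitment to the receptor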
Peroxisome proliferator-activated receptor gamma/Nuclear receptor coactivator 2, sequence (P37231 whole entry): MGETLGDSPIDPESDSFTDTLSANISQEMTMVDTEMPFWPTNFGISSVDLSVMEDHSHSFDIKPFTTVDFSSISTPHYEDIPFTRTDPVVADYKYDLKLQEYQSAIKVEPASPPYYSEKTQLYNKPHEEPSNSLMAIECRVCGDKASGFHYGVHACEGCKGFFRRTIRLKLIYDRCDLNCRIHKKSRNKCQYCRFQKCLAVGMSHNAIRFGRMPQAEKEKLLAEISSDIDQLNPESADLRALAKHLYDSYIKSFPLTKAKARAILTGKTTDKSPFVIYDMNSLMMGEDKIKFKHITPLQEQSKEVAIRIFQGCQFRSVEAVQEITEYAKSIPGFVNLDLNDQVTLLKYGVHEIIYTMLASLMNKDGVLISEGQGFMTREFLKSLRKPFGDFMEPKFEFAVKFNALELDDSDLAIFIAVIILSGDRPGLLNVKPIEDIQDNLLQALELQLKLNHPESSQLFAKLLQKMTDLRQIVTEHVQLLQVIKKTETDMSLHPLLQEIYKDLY
Peroxisome proliferator-activated receptor gamma/Nuclear receptor coactivator 2, sequence (Q15596 whole entry, further chain): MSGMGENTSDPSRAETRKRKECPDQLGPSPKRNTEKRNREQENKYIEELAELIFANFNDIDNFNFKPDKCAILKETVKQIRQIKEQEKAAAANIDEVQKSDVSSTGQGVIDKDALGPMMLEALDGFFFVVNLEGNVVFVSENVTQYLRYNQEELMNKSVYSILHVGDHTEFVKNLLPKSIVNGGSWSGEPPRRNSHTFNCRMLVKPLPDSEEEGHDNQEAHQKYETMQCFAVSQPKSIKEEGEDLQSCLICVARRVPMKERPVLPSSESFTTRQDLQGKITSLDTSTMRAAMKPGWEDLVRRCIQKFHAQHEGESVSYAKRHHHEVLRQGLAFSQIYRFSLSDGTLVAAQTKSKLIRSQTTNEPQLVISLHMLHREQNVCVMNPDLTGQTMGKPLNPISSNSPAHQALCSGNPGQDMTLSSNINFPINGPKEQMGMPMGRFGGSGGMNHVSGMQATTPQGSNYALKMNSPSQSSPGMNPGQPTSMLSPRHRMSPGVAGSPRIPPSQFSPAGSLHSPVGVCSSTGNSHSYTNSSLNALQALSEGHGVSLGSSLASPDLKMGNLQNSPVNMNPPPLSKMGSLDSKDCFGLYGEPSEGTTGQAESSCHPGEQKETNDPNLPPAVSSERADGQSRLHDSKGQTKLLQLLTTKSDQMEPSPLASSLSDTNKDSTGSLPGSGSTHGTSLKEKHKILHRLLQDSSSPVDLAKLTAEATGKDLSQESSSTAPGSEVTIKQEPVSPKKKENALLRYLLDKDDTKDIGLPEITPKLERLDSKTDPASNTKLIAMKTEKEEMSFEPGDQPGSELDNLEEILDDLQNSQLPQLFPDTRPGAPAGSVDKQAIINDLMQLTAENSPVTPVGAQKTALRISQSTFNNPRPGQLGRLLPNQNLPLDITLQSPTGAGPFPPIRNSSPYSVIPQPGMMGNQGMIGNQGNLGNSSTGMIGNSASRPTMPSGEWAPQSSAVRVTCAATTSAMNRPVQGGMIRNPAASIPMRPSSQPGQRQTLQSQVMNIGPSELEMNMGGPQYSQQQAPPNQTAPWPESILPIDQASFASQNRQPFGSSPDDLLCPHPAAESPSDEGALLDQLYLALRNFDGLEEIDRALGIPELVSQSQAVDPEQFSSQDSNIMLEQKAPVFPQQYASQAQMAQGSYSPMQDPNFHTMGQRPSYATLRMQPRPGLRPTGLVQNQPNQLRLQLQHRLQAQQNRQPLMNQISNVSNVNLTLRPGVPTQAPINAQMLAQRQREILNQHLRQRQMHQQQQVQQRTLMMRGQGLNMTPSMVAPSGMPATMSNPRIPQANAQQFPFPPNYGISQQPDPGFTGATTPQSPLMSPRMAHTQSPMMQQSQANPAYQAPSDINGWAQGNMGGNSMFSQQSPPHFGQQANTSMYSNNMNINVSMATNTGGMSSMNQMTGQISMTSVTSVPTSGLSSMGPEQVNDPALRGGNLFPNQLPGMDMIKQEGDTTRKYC

[3] = molecular target: Peroxisome proliferator-activated receptor gamma/Nuclear receptor coactivator 1 (Homo sapiens, UniProt P37231); assay type: functional;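 note: agonist potency as compounds enhance coactivator SRC-1 recruitment to PPARgamma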
[4] = molecular target: Peroxisome proliferator-activated receptor gamma/Nuclear receptor coactivator 3 (Homo sapiens, UniProt P37231); assay type: functional;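 note: agonist potency for raising coactivator recruitment to the receptor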
Peroxisome proliferator-activated receptor gamma/Nuclear receptor coactivator 3, sequence (P37231 whole entry): as the sequence (P37231 whole entry) above
Peroxisome proliferator-activated receptor gamma/Nuclear receptor coactivator 3, sequence (Q9Y6Q9 whole entry, further chain): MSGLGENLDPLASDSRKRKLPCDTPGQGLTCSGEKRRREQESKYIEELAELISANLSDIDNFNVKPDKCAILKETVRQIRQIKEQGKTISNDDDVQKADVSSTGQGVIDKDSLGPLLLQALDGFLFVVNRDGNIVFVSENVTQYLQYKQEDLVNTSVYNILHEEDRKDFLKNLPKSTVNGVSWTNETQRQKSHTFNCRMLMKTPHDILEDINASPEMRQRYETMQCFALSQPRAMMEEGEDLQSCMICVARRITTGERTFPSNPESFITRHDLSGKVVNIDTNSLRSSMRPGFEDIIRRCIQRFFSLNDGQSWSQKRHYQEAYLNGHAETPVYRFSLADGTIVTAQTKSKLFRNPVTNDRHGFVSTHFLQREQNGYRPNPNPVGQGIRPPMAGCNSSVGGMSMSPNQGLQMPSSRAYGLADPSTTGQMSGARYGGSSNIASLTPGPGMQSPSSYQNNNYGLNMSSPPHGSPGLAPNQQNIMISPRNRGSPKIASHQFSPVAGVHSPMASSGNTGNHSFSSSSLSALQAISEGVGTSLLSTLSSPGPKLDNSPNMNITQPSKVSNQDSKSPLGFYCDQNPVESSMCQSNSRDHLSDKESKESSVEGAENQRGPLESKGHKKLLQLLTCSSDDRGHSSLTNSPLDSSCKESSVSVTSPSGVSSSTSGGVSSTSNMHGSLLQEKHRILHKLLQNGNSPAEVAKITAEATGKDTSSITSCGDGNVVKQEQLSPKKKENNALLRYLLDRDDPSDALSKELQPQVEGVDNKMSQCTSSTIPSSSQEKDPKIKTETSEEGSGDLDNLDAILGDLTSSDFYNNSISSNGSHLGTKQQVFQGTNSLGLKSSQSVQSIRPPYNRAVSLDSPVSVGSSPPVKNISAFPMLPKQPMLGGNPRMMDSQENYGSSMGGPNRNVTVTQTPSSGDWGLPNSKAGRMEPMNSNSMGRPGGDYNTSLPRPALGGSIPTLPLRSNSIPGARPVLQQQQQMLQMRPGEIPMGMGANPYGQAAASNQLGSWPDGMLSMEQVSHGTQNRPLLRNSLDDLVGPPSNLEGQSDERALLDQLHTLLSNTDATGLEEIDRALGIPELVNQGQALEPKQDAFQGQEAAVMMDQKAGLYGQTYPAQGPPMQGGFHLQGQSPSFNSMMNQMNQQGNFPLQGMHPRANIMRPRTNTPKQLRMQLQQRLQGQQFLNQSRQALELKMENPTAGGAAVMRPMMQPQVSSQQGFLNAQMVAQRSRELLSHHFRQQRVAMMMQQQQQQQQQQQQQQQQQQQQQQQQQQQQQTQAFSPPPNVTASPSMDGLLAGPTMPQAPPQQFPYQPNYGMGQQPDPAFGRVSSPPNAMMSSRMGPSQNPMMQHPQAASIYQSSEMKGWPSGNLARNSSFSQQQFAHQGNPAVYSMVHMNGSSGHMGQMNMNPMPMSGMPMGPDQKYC

[5] = test system: H9c2; experiment: cells; assay type: functional, cell-based; settings: Rattus norvegicus, H9c2, Myocardium;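 note: confirmatory concentration-response retest of ultra-high-throughput screening hits for modulation of myocardial damage; cell death induced by hydrogen peroxide oxidative stress; compound pretreatment for 60 min then peroxide exposure for 2 h; potency is for protecting the cells against peroxide damage rather than for killing them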
[6] = molecular target: T1, Corticotropin-releasing factor receptor 2/Corticotropin-releasing factor-binding protein (Homo sapiens, UniProt P24387+Q13324); experiment: activators of CRF receptor 2 with binding protein – uHTS hits, confirmation (AID 602473); assay type: functional; settings: read-out: EC50_Mean
T1 sequence (Q13324 whole entry): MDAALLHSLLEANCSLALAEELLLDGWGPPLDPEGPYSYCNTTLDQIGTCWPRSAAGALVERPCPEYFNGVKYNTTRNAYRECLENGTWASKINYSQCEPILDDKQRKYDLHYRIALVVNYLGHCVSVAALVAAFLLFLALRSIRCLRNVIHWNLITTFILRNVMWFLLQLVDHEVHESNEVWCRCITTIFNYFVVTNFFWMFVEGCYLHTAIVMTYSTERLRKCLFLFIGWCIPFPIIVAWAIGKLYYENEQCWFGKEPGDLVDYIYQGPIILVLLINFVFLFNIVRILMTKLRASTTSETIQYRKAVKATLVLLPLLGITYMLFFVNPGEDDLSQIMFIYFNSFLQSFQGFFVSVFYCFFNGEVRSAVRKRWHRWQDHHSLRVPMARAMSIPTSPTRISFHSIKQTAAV
T1 sequence (P24387 whole entry): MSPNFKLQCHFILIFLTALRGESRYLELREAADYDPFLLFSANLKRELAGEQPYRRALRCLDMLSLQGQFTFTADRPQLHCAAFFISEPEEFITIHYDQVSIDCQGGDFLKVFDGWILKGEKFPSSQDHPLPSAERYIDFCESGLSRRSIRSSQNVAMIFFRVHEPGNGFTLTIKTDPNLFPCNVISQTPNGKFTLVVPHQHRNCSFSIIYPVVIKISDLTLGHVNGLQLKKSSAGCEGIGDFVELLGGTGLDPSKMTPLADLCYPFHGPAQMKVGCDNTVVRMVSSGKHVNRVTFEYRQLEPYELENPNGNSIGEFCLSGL

[7] = molecular target: T1, Corticotropin-releasing factor receptor 2/Corticotropin-releasing factor-binding protein; experiment: Dose Response confirmation of uHTS hits for small molecule antagonists of the CRF-binding protein and CRF-R2 receptor complex.; assay type: functional; settings: read-out: IC50_Mean
[8] = molecular target: Cytochrome P450 3A4 (Homo sapiens, UniProt P08684);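 note: CYP3A4 tested as one member of a cytochrome P450 panel screen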
[9] = molecular target: Genome polyprotein (dengue virus type 2, UniProt P29990); experiment: Dengue-2 NS5 methyltransferase inhibitors, primary screen, biochemical, confirmation dose response (AID 588689); assay type: functional
Genome polyprotein, sequence (P29990 2492-3391 limits assumed): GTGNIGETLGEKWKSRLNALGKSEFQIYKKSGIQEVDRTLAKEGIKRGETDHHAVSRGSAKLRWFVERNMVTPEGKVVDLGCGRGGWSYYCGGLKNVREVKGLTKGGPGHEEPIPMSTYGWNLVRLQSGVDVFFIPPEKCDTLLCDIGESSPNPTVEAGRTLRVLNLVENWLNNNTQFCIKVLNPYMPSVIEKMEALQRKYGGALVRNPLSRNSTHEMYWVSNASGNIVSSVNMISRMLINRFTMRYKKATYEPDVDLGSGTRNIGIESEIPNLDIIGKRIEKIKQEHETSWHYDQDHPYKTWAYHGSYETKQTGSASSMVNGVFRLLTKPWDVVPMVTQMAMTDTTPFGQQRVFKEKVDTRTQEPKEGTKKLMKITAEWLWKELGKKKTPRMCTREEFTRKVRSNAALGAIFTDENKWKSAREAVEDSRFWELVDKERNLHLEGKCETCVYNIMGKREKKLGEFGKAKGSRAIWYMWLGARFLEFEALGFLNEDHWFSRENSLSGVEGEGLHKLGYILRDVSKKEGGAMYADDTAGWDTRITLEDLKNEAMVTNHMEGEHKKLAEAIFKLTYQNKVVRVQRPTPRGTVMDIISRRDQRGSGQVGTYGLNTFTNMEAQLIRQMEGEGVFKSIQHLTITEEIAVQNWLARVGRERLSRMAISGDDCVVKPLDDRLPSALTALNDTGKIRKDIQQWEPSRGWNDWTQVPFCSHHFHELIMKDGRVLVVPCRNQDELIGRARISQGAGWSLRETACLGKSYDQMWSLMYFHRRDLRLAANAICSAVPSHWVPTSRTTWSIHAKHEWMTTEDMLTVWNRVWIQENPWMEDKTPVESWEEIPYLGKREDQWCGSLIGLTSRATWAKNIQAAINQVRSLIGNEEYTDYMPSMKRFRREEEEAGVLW

[10] = inhibitors of firefly luciferase expression or activity, dose response, H4 neuroglioma cells, luminescence (AID 1990); assay type: functional, cell-based
[11] = molecular target: T2, Short transient receptor potential channel 4 (Mus musculus, UniProt Q9QUQ5); experiment: mouse TRPC4 channel activators, dose response, cell-based, HEK293 TRPC4/mu-opioid, Fluo-4 calcium (AID 434937); assay type: functional
T2 sequence (Q9QUQ5 whole entry): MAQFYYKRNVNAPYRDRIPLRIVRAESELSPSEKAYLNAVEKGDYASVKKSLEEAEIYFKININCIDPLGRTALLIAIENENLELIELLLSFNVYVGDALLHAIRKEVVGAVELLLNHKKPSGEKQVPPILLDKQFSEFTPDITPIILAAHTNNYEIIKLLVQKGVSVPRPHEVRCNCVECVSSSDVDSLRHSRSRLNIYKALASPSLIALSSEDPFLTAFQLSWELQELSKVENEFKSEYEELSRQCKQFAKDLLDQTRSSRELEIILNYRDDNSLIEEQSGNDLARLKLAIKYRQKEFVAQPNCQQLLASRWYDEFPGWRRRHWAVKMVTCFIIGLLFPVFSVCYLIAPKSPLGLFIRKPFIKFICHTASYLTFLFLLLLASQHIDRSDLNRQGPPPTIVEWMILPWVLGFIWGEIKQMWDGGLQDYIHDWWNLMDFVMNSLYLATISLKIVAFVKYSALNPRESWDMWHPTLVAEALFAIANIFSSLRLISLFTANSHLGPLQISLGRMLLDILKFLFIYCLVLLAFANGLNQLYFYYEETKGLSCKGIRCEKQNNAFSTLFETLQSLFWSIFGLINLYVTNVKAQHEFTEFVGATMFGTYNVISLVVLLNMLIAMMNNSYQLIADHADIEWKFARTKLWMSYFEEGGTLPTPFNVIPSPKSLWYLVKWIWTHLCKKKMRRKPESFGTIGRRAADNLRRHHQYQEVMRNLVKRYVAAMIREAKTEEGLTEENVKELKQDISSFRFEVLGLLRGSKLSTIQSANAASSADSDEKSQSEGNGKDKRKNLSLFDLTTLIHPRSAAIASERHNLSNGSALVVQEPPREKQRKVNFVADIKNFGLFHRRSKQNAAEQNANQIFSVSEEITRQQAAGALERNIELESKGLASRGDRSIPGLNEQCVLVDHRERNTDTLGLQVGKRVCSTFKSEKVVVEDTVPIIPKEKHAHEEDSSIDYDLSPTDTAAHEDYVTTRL

[12] = inhibitors of SNCA 5'UTR-driven reporter translation, confirmation, H4 neuroglioma cells, luminescence (AID 1988); assay type: functional, cell-based
[13] = cells; assay type: functional
[14] = inhibitors of intracellular T. cruzi replication, confirmation, NIH3T3 host cells, beta-gal luminescence (AID 2044); assay type: functional, cell-based;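 note: intracellular parasites grown in NIH/3T3 mouse fibroblasts as host cells; luminescent beta-galactosidase reporter signal from transgenic T. cruzi replicating inside host cells; inhibitors lower the luminescence signal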
[15] = cytotoxicity toward NIH3T3 fibroblasts, dose response, counter-screen, cell-based, ATP luminescence, mouse fibroblasts (AID 2010); assay type: functional;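 note: cells exposed to compound for about 90 hours before reading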
[16] = Luminescence Cell-Based Dose Response HTS to Identify Inhibitors of 5'UTR Stem-Loop Driven Prion Protein mRNA Translation in H4 Neuroglioblastoma Cells. [Related pubchem assays: 1827 (Project Summary), 1813 (Primary HTS)]; assay type: functional
[17] = THP-1 cell cytotoxicity, dose response, cytotoxicity control for non-replicating M. tuberculosis project (AID 489025); assay type: functional
[18] = test system: HEK293; experiment: NOD1 signaling inhibitors, primary screen, cell-based, luminescence, uHTS (AID 1578); assay type: functional; settings: Homo sapiens
[19] = test system: HEK293; experiment: NOD2 signaling inhibitors in MDP-stimulated cells, cell-based, uHTS, luminescence (AID 2001); assay type: functional; settings: Homo sapiens
[20] = test system: HEK293; experiment: cells; assay type: functional, cell-based; settings: Homo sapiens
[21] = molecular target: T3, Cytochrome P450 1A2 (Homo sapiens, UniProt P05177);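 note: PubChem cytochrome P450 panel assay, CYP1A2 panel member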
T3 sequence (P05177 whole entry): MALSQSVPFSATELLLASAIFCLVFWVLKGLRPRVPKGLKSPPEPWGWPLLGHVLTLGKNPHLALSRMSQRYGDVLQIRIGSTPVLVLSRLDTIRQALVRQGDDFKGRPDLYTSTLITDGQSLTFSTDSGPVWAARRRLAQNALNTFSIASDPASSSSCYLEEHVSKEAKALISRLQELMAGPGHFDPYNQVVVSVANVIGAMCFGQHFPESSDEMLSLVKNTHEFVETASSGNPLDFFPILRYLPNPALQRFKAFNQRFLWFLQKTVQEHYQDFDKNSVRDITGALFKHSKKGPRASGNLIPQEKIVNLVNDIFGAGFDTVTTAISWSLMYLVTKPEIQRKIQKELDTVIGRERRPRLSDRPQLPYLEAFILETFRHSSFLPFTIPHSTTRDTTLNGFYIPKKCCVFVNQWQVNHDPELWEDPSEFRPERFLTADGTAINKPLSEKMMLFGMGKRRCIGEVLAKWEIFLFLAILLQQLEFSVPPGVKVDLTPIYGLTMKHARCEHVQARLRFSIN

[22] = Luminescence Cell-Based Dose Retest to Confirm Inhibitors of Cancer Stem Cells. [Related pubchem assays (depositor defined):AID2717, AID2721]; assay type: functional; settings: Homo sapiens
[23] = growth suppression of beta-catenin-knockout colon cells, dose response, cell-based, HCT116, human colon tumor (AID 1045); assay type: functional;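 note: HCT116 colon tumor cells with beta catenin knocked out; cells exposed to compound for 60 hours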
[24] = growth suppression of PTEN-null colon cells, dose response, cell-based, HCT116 PTEN knockout (AID 1047); assay type: functional;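 note: HCT116 colon tumor cells with PTEN knocked out; cells exposed to compound for 60 hours before readout; potency for loss of cell viability measured by luminescence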

COc1ccccc1NC(=O)c1nnn(Cc2ccccc2)c1NC(=O)C(F)(F)F
EC50 [1]: 3.86 µM (active)

CCN(CC)CCn1c(NC(=O)c2ccc(Cl)cc2)nc2ccccc21
EC50 [2]: > 79.4 µM (not active) | EC50 [3]: > 79.4 µM (not active) | EC50 [4]: > 79.4 µM (not active) | IC50 [5]: > 79 µM (inactive)

O=C(COc1ccc(Cl)cc1)NCCSCc1cccc(Cl)c1
EC50 [1]: 3.76 µM (active)

Cc1ccc(NS(=O)(=O)c2cccs2)cc1S(=O)(=O)N1CCCCCC1
EC50 [2]: > 79.4 µM (not active) | EC50 [6]: > 53 µM (inactive) | IC50 [7]: > 47.1 µM (inactive) | EC50 [3]: > 79.4 µM (not active) | EC50 [4]: > 79.4 µM (not active)

CN1C(=O)C(=Cc2ccccc2Oc2ccc(Cl)c(F)c2)C(=O)N(C)C1=O
AC50 [8]: 14.1 µM (inconclusive) | IC50 [9]: 51.9 µM (active)

O=C(CSc1nc2ccccc2[nH]1)Nc1ccc2c(c1)OCCO2
EC50 [1]: 13.3 µM (active)

Cc1cc(OCCCCn2ccnc2)cc(C)c1Cl
EC50 [10]: > 120 µM (not active) | EC50 [11]: 5.31 µM (active) | EC50 [12]: 16 µM (active) | IC50 [13]: 15.8 µM (active) | EC50 [14]: 0.145 µM (active) | EC50 [15]: > 60 µM (not active) | EC50 [16]: > 120 µM (not active) | CC50 [17]: 33.2 µM (active)

COc1cc(/C=C2/CCc3ccccc3C2=O)cc(OC)c1OC
EC50 [18]: > 20 µM (inactive) | IC50 [19]: 9.24 µM (active) | IC50 [20]: > 20 µM (inactive)

O=C(Nc1ccn(Cc2ccccc2F)n1)c1ccc(COc2cc(Cl)ccc2Cl)o1
EC50 [1]: 7.11 µM (active) | AC50 [21]: 3.55 µM (inconclusive)

COc1ccccc1N(O)C1CC(=O)N(c2ccc(Br)cc2)C1=O (configuration not stated)
IC50 [9]: 34.7 µM (active)

C/C(CC(c1ccccc1)c1c(O)oc2ccccc2c1=O)=N\Nc1ccc([N+](=O)[O-])cc1[N+](=O)[O-] (configuration not stated)
IC50 [9]: 94.4 µM (active)

Cc1ccc(-c2ccc(/C=N/N3C(=O)C4C5C=CC(C6CC56)C4C3=O)o2)c([N+](=O)[O-])c1 (configuration not stated)
EC50 [1]: 7.22 µM (active)

Cc1snc(S(=O)(=O)/C(C#N)=N/Nc2ccc(C(F)(F)F)cc2)c1C#N
AC50 [22]: 7.49 µM (active) | EC50 [1]: 6.48 µM (active)

CCN1CCCC1CNC(=O)c1cc2c(-c3ccc(Cl)cc3)nn(C)c2s1 (configuration not stated)
EC50 [23]: 5.02 µM (active) | EC50 [2]: > 79.4 µM (not active) | EC50 [24]: 5.98 µM (active) | EC50 [3]: > 79.4 µM (not active) | EC50 [4]: > 79.4 µM (not active)
